Data on five compounds can be found in patent US12139520B2 (priority 2020, dated 2024).

Bridge positions count the residues as written; N and C are the ends. Square brackets hold non-standard residues; d marks the D form. Peptide text beside a SMILES is read from it. Hyp = O=C(O)[C@@H]1C[C@@H](O)CN1

One data set deals with T1, hAMY3 receptor (Homo sapiens, UniProt O60896+P30988).
T1 sequence (P30988 25-474): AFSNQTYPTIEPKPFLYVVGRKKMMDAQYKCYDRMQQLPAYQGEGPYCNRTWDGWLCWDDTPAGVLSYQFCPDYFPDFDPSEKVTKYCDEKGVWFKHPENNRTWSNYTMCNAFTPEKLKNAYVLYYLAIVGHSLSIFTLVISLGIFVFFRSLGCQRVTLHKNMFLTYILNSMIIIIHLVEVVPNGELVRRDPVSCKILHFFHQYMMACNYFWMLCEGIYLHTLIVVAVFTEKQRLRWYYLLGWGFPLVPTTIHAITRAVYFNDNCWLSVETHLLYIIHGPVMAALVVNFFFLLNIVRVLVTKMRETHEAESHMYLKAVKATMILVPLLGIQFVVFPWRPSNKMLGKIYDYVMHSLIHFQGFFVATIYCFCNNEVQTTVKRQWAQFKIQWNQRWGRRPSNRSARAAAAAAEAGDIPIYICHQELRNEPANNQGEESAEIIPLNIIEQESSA
T1 sequence (O60896 24-148 partner): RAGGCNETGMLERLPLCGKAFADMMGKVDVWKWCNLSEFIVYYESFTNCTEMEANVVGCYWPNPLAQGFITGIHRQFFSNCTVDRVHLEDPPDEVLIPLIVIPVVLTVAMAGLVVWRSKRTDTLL
The data set can be described thus: cAMP assay for in vitro receptor activation, hAMY3-R. In kind it is cell-based. As to conditions: cAMP assay, hAMY3 receptor; read-out: hAMY3R EC50. The procedure, abridged: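 Receptor activation was measured as cAMP accumulation in a monoclonal cell line stably overexpressing hAMY3. Stimulation with graded doses lasted 30 min at room temperature in the presence of 0.5 mM IBMX, with human amylin as positive control.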
A general note: Changes in cAMP serve as a functional read-out for many G protein-coupled receptors.

The nature of data set [1]: Physical stability of peptide analogues (Thioflavin T fibrillation). The format is physicochemical. As to conditions: maximum ThT signal normalized between hAMY maximum and buffer background; 40° C., shaking, four days; pH 7 per table title. The procedure, abridged: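 Maximum ThT emission at 480 nm, after LOESS smoothing, is given as percent of the span from buffer background to hAMY. Conditions: 50 mM buffer at pH 4 or 7, 4 μM dye, 40 °C, repeated shaking, readings every 10 min for four days.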

In the case of `CC[C@H](C)[C@H](NC(=O)[C@H](CCC(N)=O)NC(=O)[C@H](Cc1c[nH]cn1)NC(=O)[C@H](C)NC(=O)[C@H](CC(C)C)NC(=O)[C@H](CCCNC(=N)N)NC(=O)[C@H](CCC(N)=O)NC(=O)[C@@H](NC(=O)[C@@H](NC(=O)[C@@H]1CSSC[C@H](NC(=O)CN)C(=O)N[C@@H](CCCNC(=N)N)C(=O)N[C@@H](Cc2ccccc2)C(=O)NCC(=O)N[C@@H]([C@@H](C)O)C(=O)N1)[C@@H](C)O)C(C)C)C(=O)N[C@@H](Cc1ccc(O)cc1)C(=O)N[C@@H](CCC(N)=O)C(=O)N[C@@H](Cc1ccccc1)C(=O)N[C@H](C(=O)N[C@@H](CC(=O)O)C(=O)N[C@@H](CCCCN)C(=O)N[C@@H](CC(=O)O)C(=O)N[C@@H](CCCCN)C(=O)N[C@@H](CC(=O)O)C(=O)N[C@@H](CC(N)=O)C(=O)N[C@H](C(=O)N[C@@H](C)C(=O)N1CCC[C@H]1C(=O)N[C@@H](CCCNC(=N)N)C(=O)N[C@H](C(=O)N[C@@H](CCCCN)C(=O)N[C@H](C(=O)N[C@@H](CO)C(=O)N1CCC[C@H]1C(=O)N[C@@H](CCC(N)=O)C(=O)NCC(=O)N1C[C@H](O)C[C@H]1C(N)=O)C(C)C)[C@@H](C)O)C(C)C)[C@@H](C)O` [compound 132] (H-GCRFGTCTVQRLAHQIYQFTDKDKDNVAPRTKVSPQG[Hyp]-NH2; disulfide 2-7; N-terminus assumed), the EC50 at hAMY3 receptor amounted to 31 pM. For the same compound, the “Max ThT signal (%)” value in data set [1] is recorded as 5.200%.
Regarding `CC[C@H](C)[C@H](NC(=O)[C@H](CCC(N)=O)NC(=O)[C@H](Cc1c[nH]cn1)NC(=O)[C@H](C)NC(=O)[C@H](CC(C)C)NC(=O)[C@H](CCCNC(=N)N)NC(=O)[C@H](CCC(N)=O)NC(=O)[C@@H](NC(=O)[C@@H](NC(=O)[C@@H]1CSSC[C@H](NC(=O)CN)C(=O)N[C@@H](CCCNC(=N)N)C(=O)N[C@@H](Cc2ccccc2)C(=O)NCC(=O)N[C@@H]([C@@H](C)O)C(=O)N1)[C@@H](C)O)C(C)C)C(=O)N[C@@H](Cc1ccc(O)cc1)C(=O)N[C@@H](CCC(N)=O)C(=O)N[C@@H](Cc1ccccc1)C(=O)N[C@H](C(=O)N[C@@H](CC(=O)O)C(=O)N[C@@H](CCCCN)C(=O)N[C@@H](CC(=O)O)C(=O)N[C@@H](CCCCN)C(=O)N[C@@H](CC(=O)O)C(=O)N[C@@H](CC(N)=O)C(=O)N[C@H](C(=O)N[C@@H](C)C(=O)N1CCC[C@H]1C(=O)N[C@@H](CCCNC(=N)N)C(=O)N[C@H](C(=O)N[C@@H](CCCCN)C(=O)N[C@H](C(=O)N[C@@H](CO)C(=O)N1CCC[C@H]1C(=O)N[C@@H](CC(N)=O)C(=O)NCC(=O)N1C[C@H](O)C[C@H]1C(N)=O)C(C)C)[C@@H](C)O)C(C)C)[C@@H](C)O` [compound 134] (H-GCRFGTCTVQRLAHQIYQFTDKDKDNVAPRTKVSPNG[Hyp]-NH2; disulfide 2-7; N-terminus assumed), the half-maximal effective concentration (EC50) on hAMY3 receptor was found to be 32 pM. In data set [1], the “Max ThT signal (%)” value stood at 17.400%.
Take `CC[C@H](C)[C@H](NC(=O)[C@H](CCC(N)=O)NC(=O)[C@H](Cc1c[nH]cn1)NC(=O)[C@H](C)NC(=O)[C@H](CC(C)C)NC(=O)[C@H](CCCNC(=N)N)NC(=O)[C@H](CCC(N)=O)NC(=O)[C@@H](NC(=O)[C@@H](NC(=O)[C@@H]1CSSC[C@H](NC(=O)CN)C(=O)N[C@@H](CCCNC(=N)N)C(=O)N[C@@H](Cc2ccccc2)C(=O)NCC(=O)N[C@@H]([C@@H](C)O)C(=O)N1)[C@@H](C)O)C(C)C)C(=O)N[C@@H](Cc1ccc(O)cc1)C(=O)N[C@@H](CCC(N)=O)C(=O)N[C@@H](Cc1ccccc1)C(=O)N[C@H](C(=O)N[C@@H](CC(=O)O)C(=O)N[C@@H](CCCCN)C(=O)N[C@@H](CC(=O)O)C(=O)N[C@@H](CCCCN)C(=O)N[C@@H](CC(=O)O)C(=O)N[C@@H](CC(N)=O)C(=O)N[C@H](C(=O)N[C@@H](C)C(=O)N1CCC[C@H]1C(=O)N[C@@H](CCCNC(=N)N)C(=O)N[C@@H](CO)C(=O)N[C@@H](CC(N)=O)C(=O)N[C@H](C(=O)NCC(=O)N1CCC[C@H]1C(=O)N[C@@H](CCC(N)=O)C(=O)NCC(=O)N1C[C@H](O)C[C@H]1C(N)=O)C(C)C)C(C)C)[C@@H](C)O` [compound 135] (H-GCRFGTCTVQRLAHQIYQFTDKDKDNVAPRSNVGPQG[Hyp]-NH2; disulfide 2-7; N-terminus assumed): at hAMY3 receptor, the concentration for a half-maximal effect (EC50) stood at 33 pM. Further, the “Max ThT signal (%)” value in data set [1] is 3.300%.
With `CC[C@H](C)[C@H](NC(=O)[C@H](CCC(N)=O)NC(=O)[C@H](Cc1c[nH]cn1)NC(=O)[C@H](C)NC(=O)[C@H](CC(C)C)NC(=O)[C@H](CCCNC(=N)N)NC(=O)[C@H](CCC(N)=O)NC(=O)[C@@H](NC(=O)[C@@H](NC(=O)[C@@H]1CSSC[C@H](NC(=O)CN)C(=O)N[C@@H](CCCNC(=N)N)C(=O)N[C@@H]([C@@H](C)O)C(=O)NCC(=O)N[C@@H]([C@@H](C)O)C(=O)N1)[C@@H](C)O)C(C)C)C(=O)N[C@@H](Cc1ccc(O)cc1)C(=O)N[C@@H](CCC(N)=O)C(=O)N[C@@H](Cc1ccccc1)C(=O)N[C@H](C(=O)N[C@@H](CC(=O)O)C(=O)N[C@@H](CCCCN)C(=O)N[C@@H](CC(=O)O)C(=O)N[C@@H](CCCCN)C(=O)N[C@@H](CC(=O)O)C(=O)N[C@@H](CC(N)=O)C(=O)N[C@H](C(=O)N[C@@H](C)C(=O)N1CCC[C@H]1C(=O)N[C@@H](CCCNC(=N)N)C(=O)N[C@@H](CO)C(=O)N[C@@H](CC(N)=O)C(=O)N[C@H](C(=O)NCC(=O)N1CCC[C@H]1C(=O)N[C@@H](CCC(N)=O)C(=O)NCC(=O)N[C@@H](Cc1ccc(O)cc1)C(N)=O)C(C)C)C(C)C)[C@@H](C)O` [compound 138] (H-GCRTGTCTVQRLAHQIYQFTDKDKDNVAPRSNVGPQGY-NH2; disulfide 2-7; N-terminus assumed), at hAMY3 receptor, the EC50 is 35 pM. In addition, the “Max ThT signal (%)” value in data set [1] amounted to 6.800%.
Take `CC[C@H](C)[C@H](NC(=O)[C@H](CCC(N)=O)NC(=O)[C@H](Cc1c[nH]cn1)NC(=O)[C@H](C)NC(=O)[C@H](CC(C)C)NC(=O)[C@H](CCCNC(=N)N)NC(=O)[C@H](CCC(N)=O)NC(=O)[C@@H](NC(=O)[C@@H](NC(=O)[C@@H]1CSSC[C@H](NC(=O)CN)C(=O)N[C@@H](CCCNC(=N)N)C(=O)N[C@@H]([C@@H](C)O)C(=O)NCC(=O)N[C@@H]([C@@H](C)O)C(=O)N1)[C@@H](C)O)C(C)C)C(=O)N[C@@H](Cc1ccc(O)cc1)C(=O)N[C@@H](CCC(N)=O)C(=O)N[C@@H](Cc1ccccc1)C(=O)N[C@H](C(=O)N[C@@H](CC(=O)O)C(=O)N[C@@H](CCCCN)C(=O)N[C@@H](CC(=O)O)C(=O)N[C@@H](CCCCN)C(=O)N[C@@H](CC(=O)O)C(=O)N[C@@H](CC(N)=O)C(=O)N[C@H](C(=O)N[C@@H](C)C(=O)N1CCC[C@H]1C(=O)N[C@@H](CCCNC(=N)N)C(=O)N[C@@H](CO)C(=O)N[C@@H](CCCCN)C(=O)N[C@H](C(=O)NCC(=O)N1CCC[C@H]1C(=O)N[C@@H](CC(N)=O)C(=O)NCC(=O)N1C[C@H](O)C[C@H]1C(N)=O)C(C)C)C(C)C)[C@@H](C)O` [compound 139] (H-GCRTGTCTVQRLAHQIYQFTDKDKDNVAPRSKVGPNG[Hyp]-NH2; disulfide 2-7; N-terminus assumed): the concentration for a half-maximal effect (EC50) on hAMY3 receptor was 35 pM. Further, the “Max ThT signal (%)” value in data set [1] stood at 4.800%.

What is called EC50 is the concentration giving half of the maximal effect.
